# In patent US20250034135A1, “ANTI-APOPTOTIC PROTEIN BCL-2 INHIBITOR, PHARMACEUTICAL COMPOSITION AND USES THEREOF” (HANGZHOU HEALZEN THERAPEUTICS CO., LTD., priority 2021, published 2025):
# Target: BCL2 (Homo sapiens (Human), UniProt P10415)
# Assay: Molecular level activity test of anti-apoptotic protein BCL2 (HTRF, binding to Bim peptide)
# Details: HTRF, binding of BCL2 to Bim peptide; read-out: BCL2 nM (inhibitory activity, IC50)
# Method in brief: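 Compound (2% DMSO) was mixed with His-tagged recombinant BCL2 and biotinylated Bim peptide for 1 h. Detection used anti-His antibody plus streptavidin-XL665 for 4 h at room temperature, read by time-resolved fluorescence.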
# BCL2, sequence (P10415 whole entry): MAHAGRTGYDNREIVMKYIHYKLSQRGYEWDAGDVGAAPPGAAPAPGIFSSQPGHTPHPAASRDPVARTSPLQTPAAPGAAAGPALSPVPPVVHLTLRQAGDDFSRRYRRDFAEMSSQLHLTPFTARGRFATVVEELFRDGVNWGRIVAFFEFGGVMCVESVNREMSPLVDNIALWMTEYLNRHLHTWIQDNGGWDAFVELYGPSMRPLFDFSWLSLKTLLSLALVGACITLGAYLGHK
row,Structure (SMILES),IC50
1,"COc1ccc(CN2CCN(C3CC4(CCN(c5cc(Oc6cnc7[nH]ccc7c6)c(C(=O)NS(=O)(=O)c6cc([N+](=O)[O-])c(NCC7(F)CCOCC7)c7c6OCO7)cc5F)CC4)C3)[C@H](c3ccccc3C(C)C)C2)cc1 [compound 106, (R)-2-((1H-pyrrolo[2,3-b]pyrid-5-yl)oxy)-5-fluoro-N-((7-(((4-fluorotetrahydro-2H-pyran-4-yl)methyl)amino)-6-nitrobenzo[d][1,3]dioxocyclopent-4-yl)sulfonyl)-4-(2-(2-(2-isopropylphenyl)-4-(4-methoxybenzyl)piperazin-1-yl)-7-azaspiro[3.5]non-7-yl)benzamide]",< 10 nM
2,"COc1ccc(CN2CCN(C3CC4(CCN(c5cc(Oc6cnc7[nH]ccc7c6)c(C(=O)NS(=O)(=O)c6cc([N+](=O)[O-])c(NCC7(F)CCOCC7)c7ocnc67)cc5F)CC4)C3)[C@H](c3ccccc3C(C)C)C2)cc1 [compound 107, (R)-2-((1H-pyrrolo[2,3-b]pyrid-5-yl)oxy)-5-fluoro-N-((7-(((4-fluorotetrahydro-2H-pyran-4-yl)methyl)amino)-6-nitrobenzo[d]oxazol-4-yl)sulfonyl)-4-(2-(2-(2-isopropylphenyl)-4-(4-methoxybenzyl)piperazin-1-yl)-7-azaspiro[3.5]non-7-yl)benzamide]",< 10 nM
3,COc1ccc(CN2CCN(C3CC4(CCN(c5cc(Oc6cnc7[nH]ccc7c6)c(C(=O)NS(=O)(=O)c6cc([N+](=O)[O-])c(NCC7(F)CCOCC7)c7scnc67)cc5F)CC4)C3)[C@H](c3ccccc3C(C)C)C2)cc1 [compound 108],< 10 nM
4,"COc1ccc(CN2CCN(C3CC4(CCN(c5cc(Oc6cnc7[nH]ccc7c6)c(C(=O)NS(=O)(=O)c6cc([N+](=O)[O-])c(NCC7(F)CCOCC7)c7occc67)cc5F)CC4)C3)[C@H](c3ccccc3C(C)C)C2)cc1 [compound 109, (R)-2-((1H-pyrrolo[2,3-b]pyrid-5-yl)oxy)-5-fluoro-N-((7-(((4-fluorotetrahydro-2H-pyran-4-yl)methyl)amino)-6-nitrobenzofuran-4-yl)sulfonyl)-4-(2-(2-(2-isopropylphenyl)-4-(4-methoxybenzyl)piperazin-1-yl)-7-azaspiro[3.5]non-7-yl)benzamide]",< 10 nM
5,"COc1ccc(CN2CCN(C3CC4(CCN(c5cc(Oc6cnc7[nH]ccc7c6)c(C(=O)NS(=O)(=O)c6cc([N+](=O)[O-])c(NCC7(F)CCOCC7)c7c6OCCO7)cc5F)CC4)C3)[C@H](c3ccccc3C(C)C)C2)cc1 [compound 110, (R)-2-((1H-pyrrolo[2,3-b]pyrid-5-yl)oxy)-5-fluoro-N-((8-(((4-fluorotetrahydro-2H-pyran-4-yl)methyl)amino)-7-nitro-2,3-dihydrobenzo[b][1,4]dioxane-5yl)sulfonyl)-4-(2-(2-(2-isopropylphenyl)-4-(4-methoxybenzyl)piperazin-1-yl)-7-azaspiro[3.5]non-7-yl)benzamide]",< 10 nM
6,"COc1ccc(CN2CCN(C3CC4(CCN(c5cc(Oc6cnc7[nH]ccc7c6)c(C(=O)NS(=O)(=O)c6cc([N+](=O)[O-])c(NCC7(F)CCOCC7)c7oc(C)cc67)cc5F)CC4)C3)[C@H](c3ccccc3C(C)C)C2)cc1 [compound 111, (R)-2-((1H-pyrrolo[2,3-b]pyrid-5-yl)oxy)-5-fluoro-N-((7-(((4-fluorotetrahydro-2H-pyran-4-yl)methyl)amino)-2-methyl-6-nitrobenzofuran-4-yl)sulfonyl)-4-(2-(2-(2-isopropylphenyl)-4-(4-methoxybenzyl)piperazin-1-yl)-7-azaspiro[3.5]non-7-yl)benzamide]",< 10 nM
7,"COc1ccc(CN2CCN(C3CC4(CCN(c5cc(Oc6cnc7[nH]ccc7c6)c(C(=O)NS(=O)(=O)c6cc([N+](=O)[O-])c(NCC7(F)CCOCC7)c7c6CCO7)cc5F)CC4)C3)[C@H](c3ccccc3C(C)C)C2)cc1 [compound 112, (R)-2-((1H-pyrrolo[2,3-b]pyrid-5-yl)oxy)-5-fluoro-N-((7-(((4-fluorotetrahydro-2H-pyran-4-yl)methyl)amino)-6-nitro-2,3-dihydrobenzofuran-4-yl)sulfonyl)-4-(2-(2-(2-isopropylphenyl)-4-(4-methoxybenzyl)piperazin-1-yl)-7-azaspiro[3.5]non-7-yl)benzamide]",< 10 nM
8,"COc1ccc(CN2CCN(C3CC4(CCN(c5cc(Oc6cnc7[nH]ccc7c6)c(C(=O)NS(=O)(=O)c6cc([N+](=O)[O-])c(NC[C@H]7CC[C@](C)(O)CC7)c7c6OCO7)cc5F)CC4)C3)[C@H](c3ccccc3C(C)C)C2)cc1 [compound 113, 2-((1H-pyrrolo[2,3-b]pyrid-5-yl)oxy)-5-fluoro-N-((7-((((1r, 4r)-4-hydroxy-4-methylcyclohexyl)methyl)amino)-6-nitrobenzo[d][1,3]dioxocyclopent-4-yl)sulfonyl)-4-(2-((R)-2-(2-isopropylphenyl)-4-(4-methoxybenzyl)piperazin-1-yl)-7-azaspiro[3.5]non-7-yl)benzamide]",< 10 nM
9,"COc1ccc(CN2CCN(C3CC4(CCN(c5cc(Oc6cnc7[nH]ccc7c6)c(C(=O)NS(=O)(=O)c6cc([N+](=O)[O-])c(NC[C@H]7CC[C@](C)(O)CC7)c7ocnc67)cc5F)CC4)C3)[C@H](c3ccccc3C(C)C)C2)cc1 [compound 114, 2-((1H-pyrrolo[2,3-b]pyrid-5-yl)oxy)-5-fluoro-N-((7-((((1r, 4r)-4-hydroxy-4-methylcyclohexyl)methyl)amino)-6-nitrobenzo[d]oxazol-4-yl)sulfonyl)-4-(2-((R)-2-(2-isopropylphenyl)-4-(4-methoxybenzyl)piperazin-1-yl)-7-azaspiro[3.5]non-7-yl)benzamide]",< 10 nM
10,"COc1ccc(CN2CCN(C3CC4(CCN(c5cc(Oc6cnc7[nH]ccc7c6)c(C(=O)NS(=O)(=O)c6cc([N+](=O)[O-])c(NC[C@H]7CC[C@](C)(O)CC7)c7occc67)cc5F)CC4)C3)[C@H](c3ccccc3C(C)C)C2)cc1 [compound 115, 2-((1H-pyrrolo[2,3-b]pyrid-5-yl)oxy)-5-fluoro-N-((7-((((1r, 4r)-4-hydroxy-4-methylcyclohexyl)methyl)amino)-6-nitrobenzofuran-4-yl)sulfonyl)-4-(2-((R)-2-(2-isopropylphenyl)-4-(4-methoxybenzyl)piperazin-1-yl)-7-azaspiro[3.5]non-7-yl)benzamide]",< 10 nM
11,"COc1ccc(CN2CCN(C3CC4(CCN(c5cc(Oc6cnc7[nH]ccc7c6)c(C(=O)NS(=O)(=O)c6cc([N+](=O)[O-])c(NC[C@H]7CC[C@](C)(O)CC7)c7scnc67)cc5F)CC4)C3)[C@H](c3ccccc3C(C)C)C2)cc1 [compound 116, 2-((1H-pyrrolo[2,3-b]pyrid-5-yl)oxy)-5-fluoro-N-((7-((((1r, 4r)-4-hydroxy-4-methylcyclohexyl)methyl)amino)-6-nitrobenzo[d]thiazol-4-yl)sulfonyl)-4-(2-((R)-2-(2-isopropylphenyl)-4-(4-methoxybenzyl)piperazin-1-yl)-7-azaspiro[3.5]non-7-yl)benzamide]",< 10 nM
12,"COc1ccc(CN2CCN(C3CC4(CCN(c5cc(Oc6cnc7[nH]ccc7c6)c(C(=O)NS(=O)(=O)c6cc([N+](=O)[O-])c(NC[C@H]7CC[C@](C)(O)CC7)c7oc(C)cc67)cc5F)CC4)C3)[C@H](c3ccccc3C(C)C)C2)cc1 [compound 117, 2-((1H-pyrrolo[2,3-b]pyrid-5-yl)oxy)-5-fluoro-N-((7-((((1r, 4r)-4-hydroxy-4-methylcyclohexyl)methyl)amino)-2-methyl-6-nitrobenzofuran-4-yl)sulfonyl)-4-(2-((R)-2-(2-isopropylphenyl)-4-(4-methoxybenzyl)piperazin-1-yl)-7-azaspiro[3.5]non-7-yl)benzamide]",< 10 nM
13,"COc1ccc(CN2CCN(C3CC4(CCN(c5cc(Oc6cnc7[nH]ccc7c6)c(C(=O)NS(=O)(=O)c6cc([N+](=O)[O-])c(NC[C@H]7CC[C@](C)(O)CC7)c7c6OCCO7)cc5F)CC4)C3)[C@H](c3ccccc3C(C)C)C2)cc1 [compound 118, 2-((1H-pyrrolo[2,3-b]pyrid-5-yl)oxy)-5-fluoro-N-((8-((((1r, 4r)-4-hydroxy-4-methylcyclohexyl)methyl)amino)-7-nitro-2,3-dihydrobenzo[b][1,4]dioxan-5-yl)sulfonyl)-4-(2-((R)-2-(2-isopropylphenyl)-4-(4-methoxybenzyl)piperazin-1-yl)-7-azaspiro[3.5]non-7-yl)benzamide]",< 10 nM
14,"COc1ccc(CN2CCN(C3CC4(CCN(c5cc(Oc6cnc7[nH]ccc7c6)c(C(=O)NS(=O)(=O)c6cc([N+](=O)[O-])c(NC[C@H]7CC[C@](C)(O)CC7)c7c6CCO7)cc5F)CC4)C3)[C@H](c3ccccc3C(C)C)C2)cc1 [compound 119, 2-((1H-pyrrolo[2,3-b]pyrid-5-yl)oxy)-5-fluoro-N-((7-((((1r, 4r)-4-hydroxy-4-methylcyclohexyl)methyl)amino)-6-nitro-2,3-dihydrobenzofuran-4-yl)sulfonyl)-4-(2-((R)-2-(2-isopropylphenyl)-4-(4-methoxybenzyl)piperazin-1-yl)-7-azaspiro[3.5]non-7-yl)benzamide]",< 10 nM
15,"COc1ccc(CN2CCN(C3CC4(CCN(c5cc(Oc6cnc7[nH]ccc7c6)c(C(=O)NS(=O)(=O)c6cc([N+](=O)[O-])c(NCC7CCOCC7)c7ocnc67)cc5F)CC4)C3)[C@H](c3ccccc3C(C)C)C2)cc1 [compound 121, (R)-2-((1H-pyrrolo[2,3-b]pyrid-5-yl)oxy)-5-fluoro-4-(2-(2-(2-isopropylphenyl)-4-(4-methoxybenzyl)piperazin-1-yl)-7-azaspiro[3.5]non-7-yl)-N-((6-nitro-7-(((tetrahydro-2H-pyran-4-yl)methyl)amino)benzo[d]oxazol-4-yl)sulfonyl)benzamide]",< 10 nM
16,"COc1ccc(CN2CCN(C3CC4(CCN(c5cc(Oc6cnc7[nH]ccc7c6)c(C(=O)NS(=O)(=O)c6cc([N+](=O)[O-])c(NCC7CCOCC7)c7scnc67)cc5F)CC4)C3)[C@H](c3ccccc3C(C)C)C2)cc1 [compound 122, (R)-2-((1H-pyrrolo[2,3-b]pyrid-5-yl)oxy)-5-fluoro-4-(2-(2-(2-isopropylphenyl)-4-(4-methoxybenzyl)piperazin-1-yl)-7-azaspiro[3.5]non-7-yl)-N-((6-nitro-7-(((tetrahydro-2H-pyran-4-yl)methyl)amino)benzo[d]thiazol-4-yl)sulfonyl)benzamide]",< 10 nM
